Data taken from patent publication US6200993A, “Heterosubstituted pyridine derivatives as PDE4 inhibitors” (Merck Frosst Canada & Co., priority 2000, dated 2001).

Molecular target: T1, GST-Met 248 PDE 4a (purified GST fusion protein of the human recombinant phosphodiesterase IVa (met-248)) (Homo sapiens, UniProt P27815)
T1 construct: phosphodiesterase IVa (met-248); made in house; host or cells: Sf-9 insect cells (baculovirus)
Experiment: SPA Based PDE Activity Assay (hydrolysis of cAMP to AMP)
Type: biochemical
Settings: 100 nM cAMP; baculovirus/Sf-9 expressed enzyme; ten point titration
Description: SPA Based PDE Activity Assay Protocol
Compounds which inhibit the hydrolysis of cAMP to AMP by the type-IV cAMP-specific phosphodiesterases were screened in 96-well plate format as follows:
In a 96 well-plate at 30° C. was added the test compound (dissolved in 2 μl DMSO), […] of substrate buffer containing [2,8-^3 H] adenosine 3',5'-cyclic phosphate (cAMP, 100 nM to 50 μM), 10 mM MgCl2, 1 mM EDTA, 50 mM Tris, pH 7.5. The reaction was initiated by the addition of […] of human recombinant PDE-IV (the amount was controlled so that ~10% product was formed in 10 min.). The reaction was stopped after 10 min. by the addition of 1 mg of PDE-SPA beads (Amersham). The product AMP generated was quantified on a Microbeta 96-well plate counter. The signal in the absence of enzyme was defined as the background. 100% activity was defined as the signal detected in the presence of enzyme and DMSO with the background subtracted. Percentage of inhibition was calculated accordingly. IC50 value was approximated with a non-linear regression fit using the standard 4-parameter/multiple binding sites equation from a ten point titration.
IC50 values shown in Table 7 were determined with 100 nM cAMP using the purified GST fusion protein of the human recombinant phosphodiesterase IVa (met-248) produced from a baculovirus/Sf-9 expression system.

T1 sequence (P27815 248-886 limits assumed): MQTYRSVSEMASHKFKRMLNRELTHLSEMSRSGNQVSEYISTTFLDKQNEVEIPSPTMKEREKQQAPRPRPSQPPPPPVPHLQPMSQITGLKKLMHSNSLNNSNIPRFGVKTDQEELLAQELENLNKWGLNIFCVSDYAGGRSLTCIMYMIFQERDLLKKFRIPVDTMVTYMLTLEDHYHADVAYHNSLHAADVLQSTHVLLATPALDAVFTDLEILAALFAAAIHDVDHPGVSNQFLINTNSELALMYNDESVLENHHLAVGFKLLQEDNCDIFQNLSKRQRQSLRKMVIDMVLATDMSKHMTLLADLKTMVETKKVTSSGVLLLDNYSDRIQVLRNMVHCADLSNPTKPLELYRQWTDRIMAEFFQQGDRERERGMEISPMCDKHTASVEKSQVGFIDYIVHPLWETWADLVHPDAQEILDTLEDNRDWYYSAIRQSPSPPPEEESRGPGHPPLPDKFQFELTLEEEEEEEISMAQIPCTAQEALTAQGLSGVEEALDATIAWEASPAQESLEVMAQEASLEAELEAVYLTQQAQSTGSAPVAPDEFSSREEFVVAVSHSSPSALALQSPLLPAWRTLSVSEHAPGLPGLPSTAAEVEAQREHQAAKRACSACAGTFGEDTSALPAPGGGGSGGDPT

| Structure (SMILES) | IC50 [nM] |
| --- | --- |
| CC(C)(Nc1ccc(C(Cc2cc[n+]([O-])cc2)c2ccc(OC(F)F)c(OC(F)F)c2)cn1)c1ccccc1 (racemic) [Example 11, 4-{2-[3,4-Bis(difluoromethoxy)phenyl]-2-[6-(1-methyl-1-phenylethylamino)3-pyridyl]ethyl}pyridine-N-oxide] | 1.63 |
| CN(Cc1ccccc1)c1ccc(C(Cc2ccncc2)c2ccc(OC(F)F)c(OC(F)F)c2)cn1 (racemic) [Example 54, 4-{2-[3,4-BIS(DIFLUOROMETHOXY)PHENYL]-2-[6-(N-METHYL-N-BENZYLAMINO)3-PYRIDYL]ETHYL}PYRIDINE] | 2.84 |
| COc1ccc(N(C)c2ccc(C(Cc3cc[n+]([O-])cc3)c3ccc(OC(F)F)c(OC(F)F)c3)cn2)cc1 (racemic) [Example 69, 4-{2-[3,4-Bis(difluoromethoxy)phenyl]-2-[6-(N-methyl-N-4-methoxyphenylamino)3-pyridyl]ethyl}pyridine-N-oxide] | 3.1 |

Stronger by IC50, values ahead:

| IC50 [nM] | Structure (SMILES) |
| --- | --- |
| 0.84 | O=C(c1ccc(F)cc1)N(C(=O)c1ccc(F)cc1)c1ccc(C(Cc2cc[n+]([O-])cc2)c2ccc(OC(F)F)c(OC(F)F)c2)cn1 (single isomer, unassigned; enantiomer-2) [Example 99, (ENANTIOMER-2)-4-{2-[3,4-BIS(DIFLUOROMETHOXY)PHENYL]-2-{6-[N,N-DI(4-FLUOROBENZAMIDE)]3-PYRIDYL}ETHYL}PYRIDINE-N-OXIDE] |
| 0.75 | FC(F)Oc1ccc(C(Cc2ccncc2)c2ccc(NCc3ccccc3)nc2)cc1OC(F)F (racemic) [Example 1, 4-{2-[3,4-Bis(difluoromethoxy)phenyl]-2-[6-(benzylamino)3-pyridyl]ethyl}pyridine] |
